In ChEMBL document CHEMBL1158089, “Indoleamine 2,3-dioxygenase inhibitors from the Northeastern Pacific Marine Hydroid Garveia annulata” (J Nat Prod, 2006):

molecular target: Indoleamine 2,3-dioxygenase 1 (Homo sapiens, UniProt P14902); assay: Inhibition of human indoleamine 2,3-dioxygenase expressed in Escherichia coli by spectrophotometric activity assay
Sequence (P14902 whole entry): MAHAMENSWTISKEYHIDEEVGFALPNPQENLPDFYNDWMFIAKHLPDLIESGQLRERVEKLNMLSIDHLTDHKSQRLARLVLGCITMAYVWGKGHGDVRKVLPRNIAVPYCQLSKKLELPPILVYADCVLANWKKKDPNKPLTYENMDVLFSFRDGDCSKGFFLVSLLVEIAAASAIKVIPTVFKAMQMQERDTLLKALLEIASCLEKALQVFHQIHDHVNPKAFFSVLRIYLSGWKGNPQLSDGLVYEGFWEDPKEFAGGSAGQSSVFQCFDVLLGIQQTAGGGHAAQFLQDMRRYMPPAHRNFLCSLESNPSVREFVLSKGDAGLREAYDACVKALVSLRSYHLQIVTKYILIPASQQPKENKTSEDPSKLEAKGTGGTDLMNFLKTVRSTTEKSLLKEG

Going from `CCC1=C(C)C(=O)c2cc3c(c(O)c2C1=O)C(=O)C(C)(O)C(=O)C3(C)C` (stereo not drawn) to `CCc1c(C)cc2c(c1O)C(=O)C1=C(C2=O)C(C)(C)OC1(OC)C(=O)OC` (stereo not drawn) [ANNULIN C], the Ki falls from 1.4 µM to 0.14 µM (10-fold). The second binds more tightly here.

`COc1c(C(C)=O)c(C)cc2cc3c(c(O)c12)C(=O)C(C)(C)C(=O)C3(C)C` [GARVEATIN C] showed a Ki of 1.2 µM.
